Results: ChEMBL document CHEMBL5053504, “Potent Inhibition of HIF1α and p300 Interaction by a Constrained Peptide Derived from CITED2” (J Med Chem, 2021)
Active and inactive are the calls of the source. The calls are words filed in the database; no cut-off is given here. Where a SMILES comes first, the peptide text is derived from it.

Key:
[1] = target: T1, CREB-binding protein/Histone acetyltransferase p300 (Homo sapiens, UniProt Q09472+Q92793); assay: Binding affinity to His-tagged human CH1 domain of p300 (323 to 423 residues)expressed in Escherichia coli Rosetta (DE3)/CBP (unknown origin) by fluorescence polarization assay
[2] = Drug uptake in human HeLa cells measured after 4 hrs by tryphan blue staining based flow cytometry; assay type: ADME, cell-based
[3] = target: T1, CREB-binding protein/Histone acetyltransferase p300; assay: Binding affinity to p300/CBP in hypoxia-induced human HeLa cells assessed as p300/CBP pull down at 25 uM measured after 12 hrs pulldown-based Western blot analysis
[4] = Stability of the compound in mouse serum by LC/MS analysis; assay type: ADME, cell-free
HeLa [5] = assay: Cytotoxicity against human HeLa cells assessed as cell membrane disruption measured after 4 hrs under hypoxia condition by LDH assay; assay type: functional, cell-based
[6] = target: T2, HIF1A/p300/CREB-binding protein (Homo sapiens) (UniProt Q09472+Q16665+Q92793); assay: Inhibition of HA-tagged CTAD (786 to 826 residues) HIF1alpha/Flag-tagged P300 CH1 domain (323 to 423 residues)/CBP (unknown origin) interaction expressed in HEK293T cells measured after 24 hrs by co-iimunoprecipitation assay; assay type: cell-based
HeLa [7] = assay: Cytotoxicity against human HeLa cells assessed as cell growth inhibition measured after 24 hrs by MTT assay; assay type: functional, cell-based
HeLa [8] = assay: Downregulation of HK1 mRNA expression in human HeLa cells at 25 uM measured after 24 hrs under hypoxia condition by RT-PCR analysis; assay type: functional, cell-based
HeLa [9] = assay: Downregulation of GLUT1 protein expression in human HeLa cells at 25 uM measured after 24 hrs under hypoxia condition by Western blot analysis; assay type: functional, cell-based
[10] = target: T2, HIF1A/p300/CREB-binding protein (Homo sapiens); assay: Inhibition of hypoxia-induced HIF1alpha/P300-CBP interaction mediated gene transcriptional activity in human HeLa cells co-transfected with luciferase reporter plasmid containing HRE and pRL-CMV vector at 25 uM incubated for 24 hrs under hypoxic condition by HRE-dependent dual luciferase reporter gene assay; assay type: cell-based
HeLa [11] = assay: Downregulation of VEGF protein expression in human HeLa cells at 25 uM measured after 24 hrs under hypoxia condition by Western blot analysis; assay type: functional, cell-based
MDA-MB-231 = assay: Cytotoxicity against human MDA-MB-231 cells assessed as cell growth inhibition measured after 24 hrs by MTT assay; assay type: functional, cell-based
HeLa [12] = assay: Cytotoxicity against human HeLa cells assessed as reduction in cell viability measured after 24 hrs under hypoxia condition by MTT assay; assay type: functional, cell-based
HeLa [13] = assay: Downregulation of GLUT1 mRNA expression in human HeLa cells at 25 uM measured after 24 hrs under hypoxia condition by RT-PCR analysis; assay type: functional, cell-based
HeLa [14] = assay: Downregulation of HK1 protein expression in human HeLa cells at 25 uM measured after 24 hrs under hypoxia condition by Western blot analysis; assay type: functional, cell-based
A549 = assay: Cytotoxicity against human A549 cells assessed as cell growth inhibition measured after 24 hrs by MTT assay; assay type: functional, cell-based
[15] = target: T2, HIF1A/p300/CREB-binding protein (Homo sapiens); assay: Inhibition of hypoxia-induced HIF1alpha/P300-CBP interaction in human HeLa cells at 10 uM measured after 24 hrs by co-immunoprecipiation assay; assay type: cell-based
HeLa [16] = assay: Downregulation of VEGF mRNA expression in human HeLa cells at 25 uM measured after 24 hrs under hypoxia condition by RT-PCR analysis; assay type: functional, cell-based

T1 sequence (Q09472 whole entry, looked up, the tested form may be a part): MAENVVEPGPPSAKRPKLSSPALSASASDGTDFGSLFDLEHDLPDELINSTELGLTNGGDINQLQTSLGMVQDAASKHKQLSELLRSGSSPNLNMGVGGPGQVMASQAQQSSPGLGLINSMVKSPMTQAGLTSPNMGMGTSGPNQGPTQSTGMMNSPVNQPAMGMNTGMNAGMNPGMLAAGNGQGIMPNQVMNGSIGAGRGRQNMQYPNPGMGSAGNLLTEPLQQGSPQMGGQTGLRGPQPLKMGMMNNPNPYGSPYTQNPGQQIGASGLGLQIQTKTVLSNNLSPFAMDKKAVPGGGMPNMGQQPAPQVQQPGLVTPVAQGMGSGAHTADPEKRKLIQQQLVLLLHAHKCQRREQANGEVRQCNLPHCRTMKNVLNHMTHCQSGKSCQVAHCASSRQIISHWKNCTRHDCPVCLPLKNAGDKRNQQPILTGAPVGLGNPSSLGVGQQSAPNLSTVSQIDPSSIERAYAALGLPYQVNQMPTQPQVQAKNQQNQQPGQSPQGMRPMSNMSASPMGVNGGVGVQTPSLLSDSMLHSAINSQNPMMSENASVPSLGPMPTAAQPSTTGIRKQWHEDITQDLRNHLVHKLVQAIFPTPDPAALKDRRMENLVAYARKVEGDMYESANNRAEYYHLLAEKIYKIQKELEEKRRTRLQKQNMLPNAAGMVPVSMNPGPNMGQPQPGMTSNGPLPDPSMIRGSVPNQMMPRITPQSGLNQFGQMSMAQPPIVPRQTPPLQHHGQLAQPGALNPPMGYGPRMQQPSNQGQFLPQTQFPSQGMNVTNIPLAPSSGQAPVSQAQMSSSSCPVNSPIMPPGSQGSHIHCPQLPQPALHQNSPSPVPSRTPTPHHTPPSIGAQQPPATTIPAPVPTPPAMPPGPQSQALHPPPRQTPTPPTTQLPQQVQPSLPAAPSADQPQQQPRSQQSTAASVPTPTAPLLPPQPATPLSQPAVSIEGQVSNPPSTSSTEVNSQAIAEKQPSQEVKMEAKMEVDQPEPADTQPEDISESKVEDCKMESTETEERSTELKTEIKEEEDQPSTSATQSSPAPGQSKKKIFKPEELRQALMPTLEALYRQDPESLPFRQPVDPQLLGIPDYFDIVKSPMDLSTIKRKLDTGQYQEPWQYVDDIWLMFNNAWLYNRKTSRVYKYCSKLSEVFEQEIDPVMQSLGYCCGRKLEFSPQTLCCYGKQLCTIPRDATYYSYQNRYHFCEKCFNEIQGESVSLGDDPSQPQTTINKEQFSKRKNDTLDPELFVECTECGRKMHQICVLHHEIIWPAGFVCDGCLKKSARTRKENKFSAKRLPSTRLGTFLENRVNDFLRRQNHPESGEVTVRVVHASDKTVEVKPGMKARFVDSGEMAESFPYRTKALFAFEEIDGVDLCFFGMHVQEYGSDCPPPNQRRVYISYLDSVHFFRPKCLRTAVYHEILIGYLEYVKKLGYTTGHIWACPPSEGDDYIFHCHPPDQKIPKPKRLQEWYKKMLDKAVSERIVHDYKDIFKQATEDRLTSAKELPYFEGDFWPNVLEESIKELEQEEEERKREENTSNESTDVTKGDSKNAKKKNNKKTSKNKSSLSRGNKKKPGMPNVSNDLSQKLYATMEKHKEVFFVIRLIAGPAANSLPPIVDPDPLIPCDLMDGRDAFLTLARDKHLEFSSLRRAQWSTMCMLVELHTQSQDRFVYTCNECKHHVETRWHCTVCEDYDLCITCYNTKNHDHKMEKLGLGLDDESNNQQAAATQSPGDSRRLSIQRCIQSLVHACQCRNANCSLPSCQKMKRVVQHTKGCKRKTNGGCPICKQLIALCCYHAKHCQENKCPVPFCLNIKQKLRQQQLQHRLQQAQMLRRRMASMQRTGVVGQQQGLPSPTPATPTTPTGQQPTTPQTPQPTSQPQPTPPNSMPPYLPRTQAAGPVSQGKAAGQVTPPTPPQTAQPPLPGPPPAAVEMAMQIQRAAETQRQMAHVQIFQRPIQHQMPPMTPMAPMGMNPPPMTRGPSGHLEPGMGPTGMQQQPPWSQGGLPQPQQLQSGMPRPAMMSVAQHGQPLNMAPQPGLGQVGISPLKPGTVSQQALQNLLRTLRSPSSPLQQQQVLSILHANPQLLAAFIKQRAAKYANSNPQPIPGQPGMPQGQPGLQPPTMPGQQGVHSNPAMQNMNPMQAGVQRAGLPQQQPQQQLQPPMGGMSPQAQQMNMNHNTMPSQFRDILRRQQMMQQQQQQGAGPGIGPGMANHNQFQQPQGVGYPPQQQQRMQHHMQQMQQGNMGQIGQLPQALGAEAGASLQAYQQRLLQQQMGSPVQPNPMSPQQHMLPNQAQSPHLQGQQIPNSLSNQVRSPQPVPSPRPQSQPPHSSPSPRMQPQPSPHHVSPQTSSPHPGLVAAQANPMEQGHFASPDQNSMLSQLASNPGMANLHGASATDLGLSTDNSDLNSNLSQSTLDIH
T1 sequence (Q92793 whole entry, looked up, the tested form may be a part): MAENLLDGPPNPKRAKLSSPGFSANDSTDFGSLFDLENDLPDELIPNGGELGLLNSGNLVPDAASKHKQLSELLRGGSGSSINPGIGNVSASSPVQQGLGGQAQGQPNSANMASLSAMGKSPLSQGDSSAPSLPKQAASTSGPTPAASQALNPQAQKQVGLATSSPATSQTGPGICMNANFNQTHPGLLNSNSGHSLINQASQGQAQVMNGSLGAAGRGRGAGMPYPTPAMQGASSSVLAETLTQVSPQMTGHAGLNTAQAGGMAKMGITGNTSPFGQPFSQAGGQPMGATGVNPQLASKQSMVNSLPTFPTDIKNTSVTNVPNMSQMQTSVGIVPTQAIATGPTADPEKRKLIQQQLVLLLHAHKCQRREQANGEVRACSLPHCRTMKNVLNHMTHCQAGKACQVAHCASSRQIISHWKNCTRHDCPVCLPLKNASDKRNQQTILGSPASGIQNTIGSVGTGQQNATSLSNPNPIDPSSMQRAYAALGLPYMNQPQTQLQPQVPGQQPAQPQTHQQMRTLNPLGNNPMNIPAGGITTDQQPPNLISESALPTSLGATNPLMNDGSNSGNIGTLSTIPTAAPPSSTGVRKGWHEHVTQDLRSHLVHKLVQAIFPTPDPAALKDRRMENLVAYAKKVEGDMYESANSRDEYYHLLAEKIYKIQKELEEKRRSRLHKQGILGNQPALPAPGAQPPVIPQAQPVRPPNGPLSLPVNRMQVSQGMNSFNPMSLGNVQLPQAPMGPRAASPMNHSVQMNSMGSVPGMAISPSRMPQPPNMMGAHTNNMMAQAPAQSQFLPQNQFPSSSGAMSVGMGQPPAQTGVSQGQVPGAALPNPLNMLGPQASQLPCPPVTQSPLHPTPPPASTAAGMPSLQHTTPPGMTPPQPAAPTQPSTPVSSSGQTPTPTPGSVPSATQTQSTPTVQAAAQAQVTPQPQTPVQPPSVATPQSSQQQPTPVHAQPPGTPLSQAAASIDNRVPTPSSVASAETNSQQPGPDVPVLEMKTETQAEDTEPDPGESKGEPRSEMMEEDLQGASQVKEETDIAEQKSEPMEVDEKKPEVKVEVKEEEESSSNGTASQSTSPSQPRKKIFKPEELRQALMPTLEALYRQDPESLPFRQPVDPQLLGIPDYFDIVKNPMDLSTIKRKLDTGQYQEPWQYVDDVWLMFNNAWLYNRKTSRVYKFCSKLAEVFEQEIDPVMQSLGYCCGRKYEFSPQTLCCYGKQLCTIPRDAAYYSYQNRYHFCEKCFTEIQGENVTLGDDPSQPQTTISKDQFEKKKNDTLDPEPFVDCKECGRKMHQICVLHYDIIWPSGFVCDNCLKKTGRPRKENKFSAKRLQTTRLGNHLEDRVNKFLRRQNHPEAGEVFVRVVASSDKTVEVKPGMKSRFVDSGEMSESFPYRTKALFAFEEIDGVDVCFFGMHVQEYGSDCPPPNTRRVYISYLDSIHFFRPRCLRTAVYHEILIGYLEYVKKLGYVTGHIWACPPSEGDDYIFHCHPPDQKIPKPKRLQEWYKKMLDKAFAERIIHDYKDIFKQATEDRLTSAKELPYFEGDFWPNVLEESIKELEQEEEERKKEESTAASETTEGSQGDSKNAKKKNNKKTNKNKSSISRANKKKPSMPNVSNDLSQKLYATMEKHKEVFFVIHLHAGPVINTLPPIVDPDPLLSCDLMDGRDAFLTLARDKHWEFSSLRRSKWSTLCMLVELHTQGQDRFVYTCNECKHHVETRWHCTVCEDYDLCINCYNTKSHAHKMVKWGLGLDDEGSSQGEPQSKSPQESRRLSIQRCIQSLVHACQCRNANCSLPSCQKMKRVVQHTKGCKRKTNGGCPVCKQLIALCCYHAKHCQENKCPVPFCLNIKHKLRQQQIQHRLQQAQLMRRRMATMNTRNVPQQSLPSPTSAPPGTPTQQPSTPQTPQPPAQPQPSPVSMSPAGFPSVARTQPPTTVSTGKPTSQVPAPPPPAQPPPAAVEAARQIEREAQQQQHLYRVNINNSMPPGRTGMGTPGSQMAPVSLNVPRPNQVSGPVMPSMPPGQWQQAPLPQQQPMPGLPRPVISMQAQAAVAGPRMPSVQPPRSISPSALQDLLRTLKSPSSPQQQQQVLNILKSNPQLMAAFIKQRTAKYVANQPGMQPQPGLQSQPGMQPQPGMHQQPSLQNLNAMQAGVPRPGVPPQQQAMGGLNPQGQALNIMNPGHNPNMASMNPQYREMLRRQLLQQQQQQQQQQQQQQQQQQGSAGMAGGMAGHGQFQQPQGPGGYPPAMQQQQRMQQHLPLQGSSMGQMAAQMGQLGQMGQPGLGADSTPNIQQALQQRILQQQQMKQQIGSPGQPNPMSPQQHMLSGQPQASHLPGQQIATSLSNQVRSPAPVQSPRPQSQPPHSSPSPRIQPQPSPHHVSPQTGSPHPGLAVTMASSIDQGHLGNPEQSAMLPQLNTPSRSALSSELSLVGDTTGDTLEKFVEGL

Compound: H-DEEVLMSLVIEMGLDRIKELPEL-OH
- Kd [1]: 37.1 nM

Compound: H-DEEVLWSLVIEMGLDRIKELPEL-OH
- Drug uptake [2]: Active

Compound: H-GLDRIKELPELWLG-OH
- Kd [1]: 1544 nM

Compound: H-LPELWLGQNEFDFMTDF-OH
- Kd [1]: 226 nM

Compound: H-DEEILMSLVIEMGLDRWKELPEL-OH
- Activity [3]: Active
- Stability [4]: Stable
- Kd [1]: 22.3 nM
- Activity (HeLa [5]): Active

Compound: CC[C@H](C)[C@H](NC(=O)[C@@H]1CNC(=O)[C@@H](N)CC(=O)N[C@@H](CC(=O)O)C(=O)N[C@@H](CCC(=O)O)C(=O)N1)C(=O)N[C@@H](CC(C)C)C(=O)N[C@@H](CCSC)C(=O)N[C@@H](CO)C(=O)N[C@@H](CC(C)C)C(=O)N[C@H](C(=O)N[C@H](C(=O)N[C@@H](CCC(=O)O)C(=O)N[C@@H](CCSC)C(=O)NCC(=O)N[C@@H](CC(C)C)C(=O)N[C@@H](CC(=O)O)C(=O)N[C@@H](CCCNC(=N)N)C(=O)N[C@@H](Cc1c[nH]c2ccccc12)C(=O)N[C@@H](CCCCN)C(=O)N[C@@H](CCC(=O)O)C(=O)N[C@@H](CC(C)C)C(=O)N1CCC[C@H]1C(=O)N[C@@H](CCC(=O)O)C(=O)N[C@@H](CC(C)C)C(N)=O)[C@@H](C)CC)C(C)C (HELM PEPTIDE1{D.E.[O=C([C@H](CN[*:3])N[*:1])[*:2]].I.L.M.S.L.V.I.E.M.G.L.D.R.W.K.E.L.P.E.L.[am]}|CHEM1{[N[C@@H](CC(=O)[*:1])C(=O)[*:2]]}$PEPTIDE1,CHEM1,1:R1-1:R1|PEPTIDE1,CHEM1,3:R3-1:R2$$$V2.0)
- inhibition [6]: Active
- growth inhibition (GI) (HeLa [7]): Active
- Activity (HeLa [8]): Active
- Activity (HeLa [9]): Active
- inhibition [10]: Active
- Activity [3]: Active
- Activity (HeLa [11]): Active
- growth inhibition (GI) (MDA-MB-231): Active
- Stability [4]: Stable
- growth inhibition (GI) (HeLa [12]): Active
- Activity (HeLa [13]): Active
- Kd [1]: 21.4 nM
- Activity (HeLa [14]): Active
- Activity (A549): Active
- inhibition [15]: Active
- Activity (HeLa [16]): Active

Compound: H-DEEVLMSLVIEMGLDRWKELPEL-OH
- Drug uptake [2]: Active

Compound: H-DEEVLMSLVIEMGLDRIKELPELWLGQNEFDFMTDF-OH
- Kd [1]: 17.7 nM

Compound: H-DEEILWSLVIEMGLDRWKELPEL-OH
- Kd [1]: 29.5 nM

Compound: H-DEEILMSLVIEMGLDRIKELPEL-OH
- Drug uptake [2]: Active

Compound: CC[C@H](C)[C@H](NC(=O)[C@H](CCCNC(=N)N)NC(=O)[C@H](CC(=O)O)NC(=O)[C@H](CC(C)C)NC(=O)CNC(=O)[C@H](CCSC)NC(=O)[C@H](CCC(=O)O)NC(=O)[C@@H](NC(=O)[C@@H](NC(=O)[C@H](CC(C)C)NC(=O)[C@H](CO)NC(=O)[C@H](CCSC)NC(=O)[C@H](CC(C)C)NC(=O)[C@@H](NC(=O)[C@H]1CNC(=O)[C@@H](N)CC(=O)N[C@@H](CC(=O)O)C(=O)N[C@@H](CCC(=O)O)C(=O)N1)C(C)C)C(C)C)[C@@H](C)CC)C(=O)N[C@@H](CCCCN)C(=O)N[C@@H](CCC(=O)O)C(=O)N[C@@H](CC(C)C)C(=O)N1CCC[C@H]1C(=O)N[C@@H](CCC(=O)O)C(=O)N[C@@H](CC(C)C)C(N)=O
- Kd [1]: 33.7 nM

Compound: H-DEEVLWSLVIEMGLDRWKELPEL-OH
- Kd [1]: 36.2 nM

Compound: H-DEEVLMSLVIEM-OH
- Kd [1]: 228.2 nM

Compound: H-DEEILWSLVIEMGLDRIKELPEL-OH
- Kd [1]: 32 nM
- Activity (HeLa [5]): Active

Compound: H-QNEFDFMTDF-OH
- Kd [1]: 312.5 nM
